Reference: US9598459B2, “Pharmaceutical compositions and methods” (priority 2015, dated 2017)
Where “and” joins values, the source holds several entries; their conditions need not be identical. Equal entries are not always repeated. Where two headings read alike, the source gives them in different places.

Columns and labels:
[1] = tested on: Japanese encepahalitis virus SA-14; experiment: Japanese encephalitis virus antiviral screen in Vero 76; format: cell-based; details: JEV SA-14, Vero 76
RD = experiment: Cytotoxicity on RD host cells; format: cell-based
Tacaribe TRVL11573 = experiment: microbe, parasite or virus in culture; format: cell-based, Tacaribe virus; details: Mammarenavirus tacaribeense, Vero
[2] = Cytotoxicity on RD host cells; format: cell-based; details: human, RD cells
HG23 = details: human
cytosolic GRs [3] = target: T1, cytosolic GRs (Homo sapiens, UniProt P04150); experiment: Binding to cytosolic glucocorticoid receptors
T1 sequence (P04150 1-777): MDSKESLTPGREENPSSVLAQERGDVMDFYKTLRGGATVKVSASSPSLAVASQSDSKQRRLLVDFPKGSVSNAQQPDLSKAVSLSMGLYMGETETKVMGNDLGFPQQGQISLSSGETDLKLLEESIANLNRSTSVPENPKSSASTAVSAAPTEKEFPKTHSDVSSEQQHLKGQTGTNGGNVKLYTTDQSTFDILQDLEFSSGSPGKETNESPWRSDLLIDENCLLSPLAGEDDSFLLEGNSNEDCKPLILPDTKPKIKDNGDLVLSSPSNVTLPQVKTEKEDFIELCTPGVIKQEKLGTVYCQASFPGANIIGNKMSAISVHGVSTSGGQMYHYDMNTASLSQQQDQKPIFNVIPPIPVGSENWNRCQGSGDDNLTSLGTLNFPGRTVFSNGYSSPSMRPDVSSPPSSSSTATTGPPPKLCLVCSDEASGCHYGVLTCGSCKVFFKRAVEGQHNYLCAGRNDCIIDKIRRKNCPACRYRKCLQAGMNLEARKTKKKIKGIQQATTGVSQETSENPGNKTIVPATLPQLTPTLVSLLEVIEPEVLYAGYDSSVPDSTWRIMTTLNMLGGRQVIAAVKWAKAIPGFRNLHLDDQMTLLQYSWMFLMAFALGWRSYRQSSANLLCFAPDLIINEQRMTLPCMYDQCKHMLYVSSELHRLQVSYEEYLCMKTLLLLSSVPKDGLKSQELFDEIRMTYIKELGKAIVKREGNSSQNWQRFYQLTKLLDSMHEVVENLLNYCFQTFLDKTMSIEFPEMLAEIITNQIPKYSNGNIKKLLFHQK

cytosolic GRs [4] = target: T1, cytosolic GRs; details: Peeters et al., 2008; cited from earlier work

Compound	EC50 ([1]; Neutral Red (Cytopathic effect/Toxicity)) [µg/mL]	EC50 ([1]; Visual (Cytopathic effect/Toxicity), unit from Conc. Range) [µg/mL]	CC50 (RD; Enterovirus D68 screen, Neutral red) [µg/mL]	CC50 (RD; Enterovirus D68 screen, Visual) [µg/mL]	CC50 (RD; read-out: Cytotoxicity 50% CC50, Enterovirus D68 screen, Tables 5-6) [µM]	cellular growth at fixed 100 μM concentration (Vero)	EC50 (Tacaribe TRVL11573)	CC50 ([2]; Cytotoxicity 50% CC50, Enterovirus D68 screen, Tables 5-6) [µM]	CC50 ([2]; Enterovirus 68 screen, Table 4, read-out: CC50) [µM]	CC50 ([2]; Enterovirus D68 screen, Neutral red, read-out: CC50) [µg/mL]	CC50 ([2]; Enterovirus D68 screen, Visual, read-out: CC50) [µg/mL]	CC50 (HG23) [µM]	selectivity ratio (GR/PR) (cytosolic GRs [3])	bound to cytosolic GRs, value (cytosolic GRs [4]) [%]
CC#CC1(O)CCC2C3CCC4=CC(=NNC(N)=S)CCC4=C3C(c3ccc4c(c3)OCO4)CC21C.CC#CC1(O)CCC2C3CCC4=CC(=O)CCC4=C3C(c3ccc4c(c3)OCO4)CC21C.CC(C)=O.CCO.O (stereo not drawn) [PT155, ⅓ (11β,17β)-17-Hydroxy-11-[3,4-(methylenedioxy)phenyl]-17-(1-propyn-1-yl)estra-4,9-dien-3-one (ORG34517)×(2EZ)-2-{(11β,17β)-17-hydroxy-11-[3,4-(methylenedioxy)phenyl]-17-(1-propyn-1-yl)estra-4,9-dien-3-ylidene}hydrazinecarbothioamide [71.8% (E), 28.2% (Z)] hemihydrate×¾% acetone× ⅛ ethanol]	2.6	2.6	8.1	3.2	5.8	(96.1) %	–	–	–	–	–	–	–	–
CC#C[C@]1(O)CC[C@H]2[C@@H]3CCC4=CC(=O)CCC4=C3[C@@H](c3ccc4c(c3)OCO4)C[C@@]21C [PT150, (11β,17β)-11-(1,3-benzodioxol-5-yl)-17-hydroxy-17-(1-propynyl)-estra-4,9-dien-3-one]	–	–	–	–	–	–	7.2 µM and 3.1 µg/mL	10.2	10.2	2.6	3.2	8.7	57	365
